{
  "source": "patent US20260242440A1",
  "about": "“NOVEL MEANS TO MODULATE NMDA RECEPTOR-MEDIATED TOXICITY” (FUNDAMENTAL PHARMA GMBH, priority 2018, published 2026)",
  "key": {"NMDA receptor": {"tested_on": "NMDA receptor", "experiment": "NMDA-induced calcium transients (Fura2 calcium imaging)", "assay_type": "cell-based, mouse", "settings": "hippocampal neurons, 6 min NMDA (20 μM) application", "procedure": "In a further experiment, the impact of P4 and P15 on NMDA-induced calcium transients was assessed. Briefly, for calcium imaging, primary hippocampal neurons on coverslips were loaded with the cell-permeable, high-affinity ratiometric calcium indicator Fura2-AM (Invitrogen™ F1221), at 1 μM in CO2-independent culture medium (CICM; CICM contains: 10 mM HEPES, 140 mM NaCl, 2.5 mM KCl, 1.0 mM MgCl2, 2.0 mM CaCl2, 1.0 mM Glycine, 35.6 mM Glucose and 0.5 mM Na-pyruvate) for 30 min at 37° C., then washed and left in CICM for another 30 min to allow for de-esterification. Fura2 was excited at 340/11 nm and 380/11 nm, and fluorescence emission was obtained from a 40× UV compatible objective (LUMPLFLN, Olympus) through a 510/20 nm emission filter. For quantification, ImageJ was used to calculate average background-subtracted fluorescence intensities for 340 and 380 nm excitation (F340 and F380) from each neuron. Intracellular calcium levels were plotted as F340/F380 ratios over time, from which the NMDA response amplitude and area under the curve (AUC) was calculated to quantify NMDA-induced calcium influx."}, "[1]": {"biological_target": "T1, NMDA receptor/TRPM4 complex (Mus musculus, UniProt Q7TN37)", "T1 construct": "cortical lysates were obtained from control mice and from mice 2 h, 6 h and 24 h following intraperitoneal injection; from tissue; host or cells: mouse cortex (lysate after i.p. injection of compound P4)", "T1 sequence (Q7TN37 whole entry, one chain of several)": "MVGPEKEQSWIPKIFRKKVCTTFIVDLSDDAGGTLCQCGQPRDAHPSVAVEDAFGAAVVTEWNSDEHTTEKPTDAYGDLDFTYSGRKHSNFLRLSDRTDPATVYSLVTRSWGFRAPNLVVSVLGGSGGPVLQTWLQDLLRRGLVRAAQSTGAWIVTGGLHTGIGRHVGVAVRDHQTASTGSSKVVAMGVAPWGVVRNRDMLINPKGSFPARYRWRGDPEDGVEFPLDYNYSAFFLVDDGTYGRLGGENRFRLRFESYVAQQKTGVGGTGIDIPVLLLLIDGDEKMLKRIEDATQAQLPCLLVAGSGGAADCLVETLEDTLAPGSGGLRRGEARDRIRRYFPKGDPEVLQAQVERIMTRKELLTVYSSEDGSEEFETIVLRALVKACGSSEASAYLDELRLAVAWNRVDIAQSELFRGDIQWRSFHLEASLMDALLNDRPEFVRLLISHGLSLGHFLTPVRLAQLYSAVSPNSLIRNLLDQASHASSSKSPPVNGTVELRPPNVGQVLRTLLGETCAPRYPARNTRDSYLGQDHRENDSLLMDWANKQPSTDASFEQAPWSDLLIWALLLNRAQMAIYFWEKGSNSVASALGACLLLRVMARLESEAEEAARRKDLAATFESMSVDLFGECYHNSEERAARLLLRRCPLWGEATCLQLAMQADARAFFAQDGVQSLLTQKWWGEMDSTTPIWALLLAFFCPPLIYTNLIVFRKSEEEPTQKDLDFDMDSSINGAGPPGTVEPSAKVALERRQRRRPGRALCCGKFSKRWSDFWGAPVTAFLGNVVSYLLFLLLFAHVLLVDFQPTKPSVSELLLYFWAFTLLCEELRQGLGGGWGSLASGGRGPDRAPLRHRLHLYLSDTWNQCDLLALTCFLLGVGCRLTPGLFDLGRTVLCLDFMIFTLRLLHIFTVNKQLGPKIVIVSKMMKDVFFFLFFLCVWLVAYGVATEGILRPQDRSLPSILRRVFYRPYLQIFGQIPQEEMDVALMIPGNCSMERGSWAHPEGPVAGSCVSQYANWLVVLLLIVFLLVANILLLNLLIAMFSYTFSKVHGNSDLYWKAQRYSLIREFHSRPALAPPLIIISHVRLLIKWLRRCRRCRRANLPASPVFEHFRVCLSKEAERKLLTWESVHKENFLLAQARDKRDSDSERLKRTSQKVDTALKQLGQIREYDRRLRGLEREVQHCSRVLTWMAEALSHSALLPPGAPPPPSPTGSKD", "experiment": "co-immunoprecipitation of NMDA receptor/TRPM4 complex from mouse cortical lysates after i.p. injection", "assay_type": "in vivo", "procedure": "In a further experiment it was assessed whether compound P4 has any impact on NMDA receptor/TRPM4 complex formation. For this purpose, co-immunoprecipitation experiments using brain lysates from the mouse cortex where carried out. Briefly, cortical lysates were obtained from control mice and from mice 2 h, 6 h and 24 h following intraperitoneal injection of compound P4 (40 mg/kg) in immunoprecipitation buffer (10 mM Tris, pH 8.0, 150 mM NaCl, 1 mM EDTA, 1% NP-40, 10% glycerol with Protease Inhibitor Cocktail, Roche) for 60 min. The lysate was then centrifuged for 12 min at 1200 g to remove cell debris and nuclei. The mixture of supernatant was incubated with anti-TRPM4 antibodies overnight. Pierce™ Protein A Magnetic Beads were added to the mixture and mixed another 12 h, followed by 3 washes with immunoprecipitation buffer. The precipitates were subsequently boiled in protein loading buffer and separated in 7.5% SDS-PAGE."}, "[2]": {"tested_on": "retinal ganglion cells (RGCs)", "experiment": "NMDA-induced degeneration of retinal ganglion cells (RGCs) in mice", "assay_type": "in vivo, mouse", "settings": "40 mg/kg i.p. at -16h, -3h, 0 h, +24 h, intravitreal NMDA 20 nmol, 7 days", "procedure": "The inventors also assessed, whether compound P4 can protect retinal ganglion cells against NMDA-induced degeneration. For this purpose, 28 C57BL/6J mice (25±3.5 g) were randomly allocated to two groups. All mice received vehicle (sunflower oil containing 5% ethanol) or P4 (40 mg/kg, dissolved in sunflower oil containing 5% ethanol) through intraperitoneal injection at −16h, −3h, 0 h, +3 h and +24 h in a volume of 50 μL each injection. At 0 h, mice received 20 nmol of NMDA (total volume 2.0 μL) by intravitreal injection in the left eye and saline (total volume 2.0 μL) in the right eye. Both eyes were removed from euthanized mice 7 days after intravitreal injections and fixed in formalin for 15 min before retinas were dissected and processed for whole mount immunostaining. Retinas were incubated in blocking solution (10% FBS, 1% Triton-X 100 in PBS) for 6 h, followed by 24 h incubation with anti-Brn3a antibody in blocking solution at 4° C. Retinas were washed 3 times with PBS and incubated with Donkey anti-rabbit Alexa Fluor-594 for 24 h at room temperature. Retinas were washed again, cut and mounted onto slides. […] Brn3a-positive cells were identified and counted with a macro in Cellprofiler. […]"}},
  "note": "“Also recorded” adds a separate entry of the source.",
  "data": [
    {"smiles": "CCN(CCN)Cc1cccc(Br)c1", "note": "[P4]", "values": [
      {"measurement": "NMDA-induced calcium transients", "setting": "NMDA receptor", "value": "neither compound P4 nor compound P15 reduced; also recorded: neither compound P4 nor P15 reduced"},
      {"measurement": "reduction in NMDA receptor/TRPM4 complex formation", "setting": "[1]; 2 h after single i.p. injection of 40 mg/kg", "value": 51, "unit": "%"},
      {"measurement": "reduction in NMDA receptor/TRPM4 complex formation", "setting": "[1]; 6 h after single i.p. injection of 40 mg/kg", "value": 61, "unit": "%"},
      {"measurement": "NMDA receptor/TRPM4 complex formation", "setting": "[1]; 24 h after i.p. injection of 40 mg/kg", "value": "had reformed"},
      {"measurement": "retinal ganglion cell (RGC) degeneration (Brn3a-positive cells)", "setting": "[2]", "value": "reduces retinal ganglion cell (RGC) degeneration"}
    ]}
  ]
}
